We go through ten compounds from patent US8216974B2, “Fluorine-containing organosulfur compound and pesticidal composition comprising the same” (Sumitomo Chemical Company, Limited, priority 2007, dated 2012).

For one test, the system named is Blattalla germanica. The experiment in a line: Test Example 4: filter paper with sucrose bait, Blattalla germanica. Format: in vivo. The settings on record: 500 ppm, 0.7 ml on filter paper; 2 male imagoes; after 6 days. The protocol: (§1) A formulation of any one of the present compounds (1) to (10) obtained according to Formulation Example 15 was diluted with water so that the active ingredient concentration was 500 ppm to obtain a test solution.
A filter paper having a diameter of 5.5 cm was spread on the bottom of a polyethylene cup having a diameter of 5.5 cm and 0.7 ml of the test solution was added dropwise onto the filter paper. As a bait 30 mg of sucrose was uniformly placed on the filter paper. Into the polyethylene cup, 2 male imagoes of Blattalla germanica were released and the cup was sealed with a lid. After 6 days, the number of surviving Blattalla germanica was examined and the death rate of the pest was calculated.

The test system of the next test is Culex pipiens pallens. In words: Test Example 5: larvae in treated water, Culex pipiens pallens. It is filed as in vivo. The conditions noted are these: 24 h, active ingredient concentration 3.5 ppm in water, 20 last-instar larvae, one day after, read-out: pest death rate. The protocol:
as §1
To 100 mL of ion-exchanged water, 0.7 ml of the test solution was added (active ingredient concentration: 3.5 ppm). Into the solution, 20 last-instar larvae of Culex pipiens pallens were released. One day after, the number of surviving Culex pipiens pallens was examined and the death rate of the pest was calculated.

A further test concerns brown rice planthopper. In words: Test Example 6: foliar spray on rice plants versus comparative compound, brown rice planthopper. Format: in vivo, Nilaparvata lugens. The settings on record: 175 ppm, sprayed 20 ml/cup on rice plants; 30 first-instar larvae released; counted after 6 days at 25° C. The procedure: In this Test Example, as a comparative compound, a compound disclosed in JP-A 2005-179321 (Compound No. 37 in Table 2) and represented by the formula:
[drawing 112] (hereinafter, referred to as the comparative compound (1)) was used.
Each formulation of the present compound (6) and the comparative compound (1) was obtained according to Formulation Example 15. The formulation was diluted so that the active ingredient concentration was 175 ppm to obtain a test solution.
At the same time, 50 g of culture soil, Bonsol No. 2 (manufactured by Sumitomo Chemical Co., Ltd.) was put into a polyethylene cup, and 10 to 15 seeds of rice were planted therein. The rice plants were grown until the second foliage leaf was developed, and then cut so as to have the same height of 5 cm. The test solution was sprayed on the rice plants in an amount of 20 ml/cup. After the test solution sprayed on the rice plants was dried, the rice plants were placed in a plastic cup for the purpose of preventing test worms from escaping. Thirty first-instar larvae of brown rice planthopper were released into the cup, and the cup was sealed with a lid. Then the cup was placed in a greenhouse at 25° C. for 6 days. Then, the number of parasitic brown rice planthoppers on the rice plants was examined.

On to `NC(=O)C(F)(c1ccc(Cl)cc1)S(=O)(=O)CCC(F)(F)F` (stereo not drawn) [present compound (4), 2-(4-chlorophenyl)-2-fluoro-2-(3,3,3-trifluoropropylsulfonyl)acetamide], for which, in the test on Blattalla germanica, the pest death rate was 100%. In the test on Culex pipiens pallens, the pest or weed control at 3.5 ppm is not below 95%.

`NC(=O)C(Cl)(Cc1cccc(C(F)(F)F)c1)S(=O)(=O)CCC(F)(F)F` (stereo not drawn) [present compound (9), 2-chloro-3-(3-trifluoromethylphenyl)-2-(3.3.3-trifluoropropylsulfonyl)propaneamide]: in the test on Blattalla germanica, the pest death rate is recorded as not below 50%. In addition, the pest or weed control at 3.5 ppm with Culex pipiens pallens was not below 10%.

For `NC(=O)C(SCCC(F)(F)F)c1ccc(Cl)cc1` (stereo not drawn) [present compound (6), 2-(4-chlorophenyl)-2-(3,3,3-trifluoropropylsulfanyl)acetamide], the “number of the parasitic pests” value in the test with brown rice planthopper is listed as not above 3.

The compound `NC(=O)C(F)(c1cc(F)c(F)c(F)c1)S(=O)(=O)CCC(F)(F)F` (stereo not drawn) [present compound (1), 2-fluoro-2-(3,3,3-trifluoropropylsulfonyl)-2-(3,4,5-trifluorophenyl)acetamide] came in with a pest death rate with Blattalla germanica of 100%. Further, in the test with Culex pipiens pallens, the pest or weed control at 3.5 ppm is not below 95%.

In the case of `NC(=O)C(c1ccc(Cl)cc1)S(=O)(=O)CCC(F)(F)F` (stereo not drawn) [present compound (7), 2-(4-chlorophenyl)-2-(3,3,3-trifluoropropylsulfonyl)acetamide], in the test on Culex pipiens pallens, the pest or weed control at 3.5 ppm is not below 10%.

As to `N#CC(SCCC(F)(F)F)c1ccc(Cl)cc1` (stereo not drawn) [comparative compound (1), reference compound], in the test on brown rice planthopper, the “number of the parasitic pests” value is reported as not below 21.

The compound `NC(=O)C(F)(c1ccc(C(F)(F)F)cc1)S(=O)(=O)CCC(F)(F)F` (stereo not drawn) [present compound (5), 2-fluoro-2-(3,3,3-trifluoropropylsulfonyl)-2-(4-trifluoromethylphenyl)acetamide] came in with a pest death rate with Blattalla germanica of 100%. Further, the pest or weed control at 3.5 ppm with Culex pipiens pallens was not below 95%.

On to `CC(C(N)=O)(c1cc(F)c(F)c(F)c1)S(=O)(=O)CCC(F)(F)F` (stereo not drawn) [present compound (2), 2-(3,4,5-trifluorophenyl)-2-(3,3,3-trifluoropropylsulfonyl)propaneamide], for which the pest death rate with Blattalla germanica worked out at 100%.

On to `NC(=O)C(F)(c1ccc(Cl)c(F)c1)S(=O)(=O)CCC(F)(F)F` (stereo not drawn) [present compound (3), 2-(4-chloro-3-fluorophenyl)-2-fluoro-2-(3,3,3-trifluoropropylsulfonyl)acetamide], for which, in the test with Blattalla germanica, the pest death rate was 100%. Moreover, the pest or weed control at 3.5 ppm in the test with Culex pipiens pallens is not below 95%.

Turning to `NC(=O)C(Cl)(Cc1ccccc1C(F)(F)F)S(=O)(=O)CCC(F)(F)F` (stereo not drawn) [present compound (10), 2-chloro-3-(2-trifluoromethylphenyl)-2-(3,3,3-trifluoropropylsulfonyl)propaneamide], in the test on Culex pipiens pallens, the pest or weed control at 3.5 ppm is not below 95%.
